By Ki is commonly meant the equilibrium dissociation constant of an inhibitor or competing ligand from its target.

Mcl-1 protein, sequence (Q07820 whole entry): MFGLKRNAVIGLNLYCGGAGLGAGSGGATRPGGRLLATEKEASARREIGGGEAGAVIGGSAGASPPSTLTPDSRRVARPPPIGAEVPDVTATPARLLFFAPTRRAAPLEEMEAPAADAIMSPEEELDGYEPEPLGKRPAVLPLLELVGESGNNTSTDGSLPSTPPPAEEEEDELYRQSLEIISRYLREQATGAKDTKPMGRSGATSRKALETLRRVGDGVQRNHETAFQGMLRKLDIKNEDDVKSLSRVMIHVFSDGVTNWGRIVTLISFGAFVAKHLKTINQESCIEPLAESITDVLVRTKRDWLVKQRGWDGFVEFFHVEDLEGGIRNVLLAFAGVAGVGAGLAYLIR

This assay concerns the target Mcl-1 protein (UniProtKB Q07820) (Homo sapiens (Human), UniProt Q07820). In words: Inhibition of Mcl-1 by the fluorescence polarisation assay (Example A, Method A). It is filed as binding. Particulars: fluorescence polarization assay. The gist of the method: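 Protein (5 nM) and fluorescein-tagged peptide tracer (1 nM) incubated with 11-point compound series for 2 h at room temperature in HEPES/NaCl/Tween 20 buffer, pH 7.4, 5% DMSO. Displacement read as decrease in polarisation; IC50 fitted by 4-parameter logistic, converted to Ki (cKi or eKi).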
In general terms: Fluorescence polarisation rises when a labelled molecule tumbles more slowly, as on binding a larger partner.
On to `COc1ccc2c(c1)[C@]1(CC[C@](Nc3cccc(Br)c3)(C(=O)O)CC1)C1(CCCC1)C2` [Example 94, (1s,4s)-4-(3-bromoanilino)-6′-methoxy-3′H-dispiro[cyclohexane-1,1′-indene-2′,1″-cyclopentane]-4-carboxylic acid], for which the Ki was found to be 129000 nM.

With `O=C(O)[C@]1(Nc2cccc(Cl)c2)CC[C@@]2(CC1)c1ccccc1C[C@@H]2c1ccc2occc2c1` [Example 282, (1r,2′R,4R)-2′-(1-benzofuran-5-yl)-4-(3-chloroanilino)-2′,3′-dihydrospiro[cyclohexane-1,1′-indene]-4-carboxylic acid], the Ki stood at 5130 nM.

On to `O=C(O)[C@]1(Nc2cccc(Cl)c2)CC[C@@]2(CC1)c1ccccc1CC2c1ccc(Oc2cccnc2)cc1` (stereo partly drawn) [Example 367, (1r,4r)-4-(3-chloroanilino)-2′-{4-[(pyridin-3-yl)oxy]phenyl}-2′,3′-dihydrospiro[cyclohexane-1,1′-indene]-4-carboxylic acid], for which the Ki is 443 nM.

Consider `CC[C@H](COc1ccncc1)C[C@H]1Cc2ccccc2[C@]12CC[C@@](Nc1cccc(Cl)c1)(C(=O)O)CC2` [Example 542], for which the Ki stood at 187 nM.

Turning to `O=C(O)[C@]1(Nc2cccc(Cl)c2)CC[C@]2(CC1)C(c1ccccc1)=Cc1ccccc12` [Example 305, (1s,4s)-4-(3-chloroanilino)-2′-phenylspiro[cyclohexane-1,1′-indene]-4-carboxylic acid], the Ki worked out at 663 nM.

With `COc1ccc(CCCC2=Cc3ccccc3[C@]23CC[C@@](Nc2cccc(Cl)c2)(C(=O)O)CC3)cc1` [Example 155, (1r,4r)-4-(3-chloroanilino)-2′-[3-(4-methoxyphenyl)propyl]spiro[cyclohexane-1,1′-indene]-4-carboxylic acid], the Ki is 710 nM.

Consider `O=C1CCc2c(OCCCC3Cc4ccccc4[C@]34CC[C@@](Nc3cccc(Cl)c3)(C(=O)O)CC4)cccc21` (stereo partly drawn) [Example 435, (1r,4r)-4-(3-chloroanilino)-2′-{3-[(1-oxo-2,3-dihydro-1H-inden-4-yl)oxy]propyl}-2′,3′-dihydrospiro[cyclohexane-1,1′-indene]-4-carboxylic acid], for which the Ki was found to be 555 nM.

Take `O=C(O)C1(Nc2cccc(Br)c2)CCC2(C=Cc3cccc(Br)c32)CC1` (single isomer, unassigned) [Example 59, 7′-bromo-4-(3-bromoanilino)spiro[cyclohexane-1,1′-indene]-4-carboxylic acid]: the inhibitory constant (Ki) was 4210 nM.

In the case of `COc1ccc2c(c1)C=C(Br)[C@]21CC[C@](Nc2cccc(Cl)c2)(C(=O)O)CC1` [Example 130, (1s,4s)-2′-bromo-4-(3-chloroanilino)-5′-methoxyspiro[cyclohexane-1,1′-indene]-4-carboxylic acid], the Ki amounted to 92.4 nM.

For the compound `O=C(O)[C@]1(Nc2cccc(Cl)c2)CC[C@@]2(CC1)c1ccccc1CC2CCOCc1ccccc1` (stereo partly drawn) [Example 396, (1r,4r)-2′-[2-(benzyloxy)ethyl]-4-(3-chloroanilino)-2′,3′-dihydrospiro[cyclohexane-1,1′-indene]-4-carboxylic acid], the Ki was found to be 321 nM.

On to `O=C(O)[C@]1(Nc2cccc(Cl)c2)CC[C@@]2(CC1)c1ccccc1CC2CCOc1cccc2[nH]ccc12` (stereo partly drawn) [Example 185, (1r,4r)-4-(3-chloroanilino)-2′-{2-[(1H-indol-4-yl)oxy]ethyl}-2′,3′-dihydrospiro[cyclohexane-1,1′-indene]-4-carboxylic acid], for which the Ki was found to be 74 nM.

Turning to `O=C(O)[C@]1(Nc2cccc(Cl)c2)CC[C@@]2(CC1)c1ccccc1CC2CCOc1ccnc(F)c1` (stereo partly drawn) [Example 187, (1r,4r)-4-(3-chloroanilino)-2′-{2-[(2-fluoropyridin-4-yl)oxy]ethyl}-2′,3′-dihydrospiro[cyclohexane-1,1′-indene]-4-carboxylic acid], the Ki was determined as 271 nM.

As to `O=C(O)[C@]1(Nc2cccc(Cl)c2)CC[C@]2(CC1)C(c1ccc(-c3ccccc3)o1)=Cc1ccccc12` [Example 317, (1s,4s)-4-(3-chloroanilino)-2′-(5-phenylfuran-2-yl)spiro[cyclohexane-1,1′-indene]-4-carboxylic acid], the inhibition constant (Ki) was 942 nM.

On to `C=CCOC1Cc2ccccc2[C@]12CC[C@@](Nc1cccc(Cl)c1)(C(=O)O)CC2` (stereo partly drawn) [Example 122, (1s,4s)-4-(3-chloroanilino)-2′-[(prop-2-en-1-yl)oxy]-2′,3′-dihydrospiro[cyclohexane-1,1′-indene]-4-carboxylic acid], for which the Ki is 3770 nM.

With `O=c1ccn(CCCC2Cc3ccccc3[C@]23CC[C@@](Nc2cccc(Cl)c2)(C(=O)O)CC3)cc1` (stereo partly drawn) [Example 167, (1r,4r)-4-(3-chloroanilino)-2′-[3-(4-oxopyridin-1 (4H)-yl)propyl]-2′,3′-dihydrospiro[cyclohexane-1,1′-indene]-4-carboxylic acid], the Ki was 32700 nM.

Take `C/C=C/C1=Cc2ccccc2[C@]12CC[C@@](Nc1cccc(Cl)c1)(C(=O)O)CC2` [Example 159, (1r,4r)-4-(3-chloroanilino)-2′-[(1E)-prop-1-en-1-yl]spiro[cyclohexane-1,1′-indene]-4-carboxylic acid]: the inhibition constant Ki turned out to be 233 nM.

For `O=C(O)[C@]1(Nc2cccc(Cl)c2)CC[C@]2(CC1)C(C1CC1)=Cc1ccccc12` [Example 90, (1r,4r)-4-(3-chloroanilino)-2′-cyclopropylspiro[cyclohexane-1,1′-indene]-4-carboxylic acid], the inhibition constant (Ki) is 2150 nM.

Consider `CN(CCc1ccccc1)C(=O)C1Cc2ccccc2[C@]12CC[C@@](Nc1cccc(Cl)c1)(C(=O)O)CC2` (single isomer, unassigned) [Example 407, (1r,4r)-4-(3-chloroanilino)-2′-[methyl(2-phenylethyl)carbamoyl]-2′,3′-dihydrospiro[cyclohexane-1,1′-indene]-4-carboxylic acid], for which the Ki was determined as 1370 nM.

As to `CN1c2ccc(CCc3ccccc3)cc2[C@]2(CC[C@](Nc3cccc(Br)c3)(C(=O)O)CC2)C1=O` [Example 11, (1r,4r)-4-(3-bromoanilino)-1′-methyl-2′-oxo-5′-(2-phenylethyl)-1′,2′-dihydrospiro[cyclohexane-1,3′-indole]-4-carboxylic acid], the Ki stood at 6430 nM.

For `O=C(O)[C@]1(Nc2cccc(Cl)c2)CC[C@@]2(C=Cc3ncccc32)CC1` [Example 70, (1r,4r)-4-(3-chloroanilino)spiro[cyclohexane-1,5′-cyclopenta[b]pyridine]-4-carboxylic acid], the Ki stood at 25900 nM.

As to `COc1ccc(CCOCC2=Cc3ccccc3[C@]23CC[C@@](Nc2cccc(Cl)c2)(C(=O)O)CC3)cc1` [Example 421, (1s,4s)-4-(3-chloroanilino)-2′-{[2-(4-methoxyphenyl)ethoxy]methyl}spiro[cyclohexane-1,1′-indene]-4-carboxylic acid], the Ki was 793 nM.

Take `O=C(O)[C@]1(Nc2cccc(Cl)c2)CC[C@]2(CC1)C(CCCc1ccc(Cl)cc1)=Cc1ccccc12` [Example 157, (1r,4r)-4-(3-chloroanilino)-2′-[3-(4-chlorophenyl)propyl]spiro[cyclohexane-1,1′-indene]-4-carboxylic acid]: the Ki turned out to be 846 nM.

Consider `O=C(O)[C@]1(Nc2cccc(Cl)c2)CC[C@]2(CC1)C(c1ccc3ccoc3c1)=Cc1ccccc12` [Example 265, (1s,4s)-2′-(1-benzofuran-6-yl)-4-(3-chloroanilino)spiro[cyclohexane-1,1′-indene]-4-carboxylic acid], for which the Ki was 1100 nM.

As to `CC(F)(COc1ccnc2c1CCC2)CC1Cc2ccccc2[C@]12CC[C@@](Nc1cccc(Cl)c1)(C(=O)O)CC2` (stereo partly drawn) [Example 607, (1r,4r)-4-(3-chloroanilino)-2′-{3-[(6,7-dihydro-5H-cyclopenta[b]pyridin-4-yl)oxy]-2-fluoro-2-methylpropyl}-2′,3′-dihydrospiro[cyclohexane-1,1′-indene]-4-carboxylic acid], the Ki is 164 nM.

Regarding `CN1C(=O)Cc2cc(OCCCC3Cc4ccccc4[C@]34CC[C@@](Nc3cccc(Cl)c3)(C(=O)O)CC4)ccc21` (stereo partly drawn) [Example 480, (1r,4r)-4-(3-chloroanilino)-2′-{3-[(1-methyl-2-oxo-2,3-dihydro-1H-indol-5-yl)oxy]propyl}-2′,3′-dihydrospiro[cyclohexane-1,1′-indene]-4-carboxylic acid], the Ki turned out to be 431 nM.

In the case of `O=C(O)[C@]1(Nc2cccc(Cl)c2)CC[C@@]2(CC1)c1ccccc1CC2CCCOc1ccccc1` (stereo partly drawn) [Example 424, (1r,4r)-4-(3-chloroanilino)-2′-(3-phenoxypropyl)-2′,3′-dihydrospiro[cyclohexane-1,1′-indene]-4-carboxylic acid], the inhibition constant Ki was determined as 184 nM.

`O=C(O)[C@]1(Nc2cccnc2)CC[C@]2(CC1)C(Br)=Cc1ccccc12` [Example 87, (1s,4s)-2′-bromo-4-[(pyridin-3-yl)amino]spiro[cyclohexane-1,1′-indene]-4-carboxylic acid]: the Ki is 4380 nM.

For the compound `Cc1cncn(CCCC2Cc3ccccc3[C@]23CC[C@@](Nc2cccc(Cl)c2)(C(=O)O)CC3)c1=O` (stereo partly drawn) [Example 183, (1r,4r)-4-(3-chloroanilino)-2′-[3-(5-methyl-6-oxopyrimidin-1 (6H)-yl)propyl]-2′,3′-dihydrospiro[cyclohexane-1,1′-indene]-4-carboxylic acid], the inhibition constant (Ki) was 2480 nM.

For the compound `COc1cccc([C@@H]2Cc3ccccc3[C@]23CC[C@@](Nc2cccc(Br)c2)(C(=O)O)CC3)c1` [Example 219, (1r,2′S,4S)-4-(3-bromoanilino)-2′-(3-methoxyphenyl)-2′,3′-dihydrospiro[cyclohexane-1,1′-indene]-4-carboxylic acid], the Ki was 381 nM.

With `O=C(O)[C@]1(Nc2cccc(Cl)c2)CC[C@@]2(CC1)c1ccccc1CC2CC(COCCN1CCOCC1)COc1ccnc2c1CCC2` (single isomer, unassigned) [Example 495, (1r,4r)-4-(3-chloroanilino)-2′-(2-{[(6,7-dihydro-5H-cyclopenta[b]pyridin-4-yl)oxy]methyl}-3-[2-(morpholin-4-yl)ethoxy]propyl)-2′,3′-dihydrospiro[cyclohexane-1,1′-indene]-4-carboxylic acid], the Ki came to 11.4 nM.

The values are drawn from patent publication US20240150293A1, “SPIROCYCLOHEXANE DERIVATIVES, PHARMACEUTICAL COMPOSITIONS CONTAINING THEM AND THEIR USES AS ANTI-APOPTOTIC INHIBITORS” (LES LABORATOIRES SERVIER, priority 2021, published 2024).
